Results from ChEMBL document CHEMBL1140154, “1H-cyclopentapyrimidine-2,4(1H,3H)-dione-related ionotropic glutamate receptors ligands. structure-activity relationships and identification of potent and Selective iGluR5 modulators” (J Med Chem, 2008).

Columns and labels:
Glutamate receptor 1 [1] = target: T1, Glutamate receptor 1 (Rattus norvegicus, UniProt P19490); assay: biochemical
Glutamate receptor 4 [2] = target: T2, Glutamate receptor 4 (Rattus norvegicus, UniProt P19493); assay: biochemical
T2 sequence (P19493 whole entry): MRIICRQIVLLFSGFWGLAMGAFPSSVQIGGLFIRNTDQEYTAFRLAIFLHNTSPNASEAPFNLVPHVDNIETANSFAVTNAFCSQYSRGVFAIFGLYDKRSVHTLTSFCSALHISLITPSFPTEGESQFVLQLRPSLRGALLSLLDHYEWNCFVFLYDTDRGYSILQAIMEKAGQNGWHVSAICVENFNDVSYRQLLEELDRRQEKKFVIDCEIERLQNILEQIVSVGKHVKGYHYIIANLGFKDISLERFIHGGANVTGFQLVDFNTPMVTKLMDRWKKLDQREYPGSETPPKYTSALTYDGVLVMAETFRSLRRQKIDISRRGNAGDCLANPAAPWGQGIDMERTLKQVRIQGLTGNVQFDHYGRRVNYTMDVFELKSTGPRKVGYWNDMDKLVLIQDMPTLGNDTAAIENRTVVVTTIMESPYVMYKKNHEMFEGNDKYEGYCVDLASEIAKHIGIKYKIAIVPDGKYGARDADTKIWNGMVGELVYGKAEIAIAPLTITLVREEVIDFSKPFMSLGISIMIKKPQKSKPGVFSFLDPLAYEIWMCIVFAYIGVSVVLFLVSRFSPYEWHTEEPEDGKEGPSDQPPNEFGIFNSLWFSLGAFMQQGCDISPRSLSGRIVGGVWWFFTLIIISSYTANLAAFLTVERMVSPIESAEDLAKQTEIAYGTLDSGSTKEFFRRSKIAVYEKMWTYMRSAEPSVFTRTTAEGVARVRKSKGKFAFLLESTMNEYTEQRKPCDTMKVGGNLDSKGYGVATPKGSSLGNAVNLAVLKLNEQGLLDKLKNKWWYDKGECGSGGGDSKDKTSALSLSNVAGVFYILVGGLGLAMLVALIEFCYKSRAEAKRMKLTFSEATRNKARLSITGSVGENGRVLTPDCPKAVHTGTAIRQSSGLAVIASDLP

[3] = target: Glutamate receptor ionotropic, kainate 2 (Rattus norvegicus, UniProt P42260); assay: Displacement of [3H]kainic acid from rat recombinant iGluR6(V,C,R) receptor expressed in Sf9 cells
Glutamate receptor 3 [4] = target: T3, Glutamate receptor 3 (Rattus norvegicus, UniProt P19492); assay: biochemical
T3 sequence (P19492 whole entry): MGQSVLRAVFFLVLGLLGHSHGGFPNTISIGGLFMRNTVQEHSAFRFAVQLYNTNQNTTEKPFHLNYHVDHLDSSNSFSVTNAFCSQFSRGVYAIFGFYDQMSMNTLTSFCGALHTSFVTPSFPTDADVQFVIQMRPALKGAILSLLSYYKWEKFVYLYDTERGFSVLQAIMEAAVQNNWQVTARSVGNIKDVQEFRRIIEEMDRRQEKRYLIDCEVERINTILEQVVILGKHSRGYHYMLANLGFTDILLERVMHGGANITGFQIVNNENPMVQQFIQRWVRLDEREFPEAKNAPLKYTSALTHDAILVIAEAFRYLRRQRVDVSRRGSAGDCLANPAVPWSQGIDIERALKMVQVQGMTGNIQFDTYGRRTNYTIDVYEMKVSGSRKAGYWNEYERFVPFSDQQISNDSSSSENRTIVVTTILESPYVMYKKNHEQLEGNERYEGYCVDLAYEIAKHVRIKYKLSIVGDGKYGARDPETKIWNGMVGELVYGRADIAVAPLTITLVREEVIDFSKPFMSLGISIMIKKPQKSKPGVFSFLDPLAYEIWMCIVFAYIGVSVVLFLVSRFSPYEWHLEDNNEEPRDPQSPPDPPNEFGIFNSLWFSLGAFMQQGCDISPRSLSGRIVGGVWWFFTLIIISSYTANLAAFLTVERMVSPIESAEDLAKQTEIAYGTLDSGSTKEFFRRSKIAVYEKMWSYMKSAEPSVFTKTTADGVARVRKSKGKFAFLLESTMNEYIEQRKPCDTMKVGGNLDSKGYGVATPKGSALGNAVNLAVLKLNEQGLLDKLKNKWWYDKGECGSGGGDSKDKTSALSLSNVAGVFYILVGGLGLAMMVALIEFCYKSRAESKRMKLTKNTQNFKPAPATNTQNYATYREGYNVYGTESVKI

[5] = target: Glutamate receptor ionotropic, kainate 1 (Rattus norvegicus, UniProt P22756); assay: biochemical
Sequence of Glutamate receptor ionotropic, kainate 1 (Rattus norvegicus, UniProt P22756) (P22756 whole entry): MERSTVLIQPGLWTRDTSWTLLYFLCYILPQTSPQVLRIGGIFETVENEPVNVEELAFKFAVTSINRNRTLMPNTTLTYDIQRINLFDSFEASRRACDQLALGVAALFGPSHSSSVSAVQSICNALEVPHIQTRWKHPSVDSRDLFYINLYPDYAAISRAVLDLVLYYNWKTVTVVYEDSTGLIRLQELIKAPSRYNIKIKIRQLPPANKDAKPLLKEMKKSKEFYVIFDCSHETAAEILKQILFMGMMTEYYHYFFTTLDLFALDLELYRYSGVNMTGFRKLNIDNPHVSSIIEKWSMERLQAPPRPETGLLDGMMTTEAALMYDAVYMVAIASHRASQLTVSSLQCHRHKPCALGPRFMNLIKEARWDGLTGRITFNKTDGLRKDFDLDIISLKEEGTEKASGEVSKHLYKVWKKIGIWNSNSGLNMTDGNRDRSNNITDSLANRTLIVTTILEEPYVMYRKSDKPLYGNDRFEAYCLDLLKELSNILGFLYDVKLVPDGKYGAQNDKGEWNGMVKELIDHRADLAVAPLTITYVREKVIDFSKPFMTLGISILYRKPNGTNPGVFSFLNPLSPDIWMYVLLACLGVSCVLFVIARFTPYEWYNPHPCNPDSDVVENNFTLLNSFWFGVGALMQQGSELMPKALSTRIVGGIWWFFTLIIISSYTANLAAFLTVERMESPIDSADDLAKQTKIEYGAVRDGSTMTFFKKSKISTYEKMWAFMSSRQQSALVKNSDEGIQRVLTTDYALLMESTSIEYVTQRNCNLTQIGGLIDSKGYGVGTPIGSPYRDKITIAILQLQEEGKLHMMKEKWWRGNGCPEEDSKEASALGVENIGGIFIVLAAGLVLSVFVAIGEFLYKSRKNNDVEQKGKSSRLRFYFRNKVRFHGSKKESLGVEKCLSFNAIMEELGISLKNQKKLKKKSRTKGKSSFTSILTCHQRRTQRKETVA

Glutamate receptor 1 [6] = target: T1, Glutamate receptor 1; assay: Agonist activity at cyclothiazide-desensitized rat recombinant flop iGluR1 expressed in Xenopus laevis oocytes by two electrode voltage-clamp electrophysiology method; format: functional, cell-based, Oocyte
Glutamate receptor 3 [7] = target: T3, Glutamate receptor 3; assay: Agonist activity at cyclothiazide-desensitized rat recombinant flip iGluR3 expressed in Xenopus laevis oocytes by two electrode voltage-clamp electrophysiology method; format: functional, cell-based, Oocyte
Glutamate receptor 4 [8] = target: T2, Glutamate receptor 4; assay: Agonist activity at cyclothiazide-desensitized rat recombinant flip iGluR4 expressed in Xenopus laevis oocytes by two electrode voltage-clamp electrophysiology method; format: functional, cell-based, Oocyte
Glutamate receptor 1 [9] = target: T1, Glutamate receptor 1; assay: Agonist activity at cyclothiazide-desensitized rat recombinant flip iGluR1 expressed in Xenopus laevis oocytes by two electrode voltage-clamp electrophysiology method; format: functional, cell-based, Oocyte
Glutamate receptor 1 [10] = target: T4, Glutamate receptor 1 (Homo sapiens, UniProt P42261); assay: Agonist activity at cyclothiazide-desensitized human flip iGluR1 expressed in CHO-K1 cells by whole cell patch-clamp method; format: functional, cell-based
T4 sequence (P42261 whole entry): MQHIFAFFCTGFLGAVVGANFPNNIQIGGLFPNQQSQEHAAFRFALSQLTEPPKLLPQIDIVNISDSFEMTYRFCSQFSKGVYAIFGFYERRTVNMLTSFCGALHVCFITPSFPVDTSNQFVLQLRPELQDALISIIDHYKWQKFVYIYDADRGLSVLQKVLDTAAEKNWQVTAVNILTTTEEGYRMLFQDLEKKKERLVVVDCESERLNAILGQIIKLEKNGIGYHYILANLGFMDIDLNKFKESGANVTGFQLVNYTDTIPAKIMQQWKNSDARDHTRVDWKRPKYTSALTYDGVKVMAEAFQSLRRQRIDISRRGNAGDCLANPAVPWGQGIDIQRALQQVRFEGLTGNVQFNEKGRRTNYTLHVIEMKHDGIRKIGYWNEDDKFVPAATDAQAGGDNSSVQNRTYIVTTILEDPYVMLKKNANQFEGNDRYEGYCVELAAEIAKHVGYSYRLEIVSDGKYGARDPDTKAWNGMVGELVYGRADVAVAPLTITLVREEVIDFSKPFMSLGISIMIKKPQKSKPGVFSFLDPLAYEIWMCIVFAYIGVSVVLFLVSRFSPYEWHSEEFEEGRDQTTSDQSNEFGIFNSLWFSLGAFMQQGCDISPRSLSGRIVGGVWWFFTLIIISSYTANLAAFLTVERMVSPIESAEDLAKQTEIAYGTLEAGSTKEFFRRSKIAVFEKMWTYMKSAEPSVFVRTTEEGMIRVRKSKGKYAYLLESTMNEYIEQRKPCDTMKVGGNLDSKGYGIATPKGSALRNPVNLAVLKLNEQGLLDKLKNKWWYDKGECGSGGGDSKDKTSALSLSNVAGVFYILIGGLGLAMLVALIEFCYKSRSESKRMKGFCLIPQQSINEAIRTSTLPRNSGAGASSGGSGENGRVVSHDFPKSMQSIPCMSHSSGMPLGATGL

[11] = target: Glutamate receptor ionotropic, kainate 1 (Homo sapiens, UniProt P39086); assay: Antagonist activity at human iGluR5(Q)1b expressed in CHO-K1 cells by whole cell patch-clamp method; format: functional, cell-based
Glutamate receptor 2 [12] = target: T5, Glutamate receptor 2 (Rattus norvegicus, UniProt P19491); assay: biochemical
Glutamate receptor 2 [13] = target: T5, Glutamate receptor 2
Glutamate receptor 1 [14] = target: T4, Glutamate receptor 1; assay: Antagonist activity at human flip iGluR1 expressed in CHO-K1 cells by whole cell patch-clamp method; format: functional, cell-based

T1 sequence (P19490 whole entry): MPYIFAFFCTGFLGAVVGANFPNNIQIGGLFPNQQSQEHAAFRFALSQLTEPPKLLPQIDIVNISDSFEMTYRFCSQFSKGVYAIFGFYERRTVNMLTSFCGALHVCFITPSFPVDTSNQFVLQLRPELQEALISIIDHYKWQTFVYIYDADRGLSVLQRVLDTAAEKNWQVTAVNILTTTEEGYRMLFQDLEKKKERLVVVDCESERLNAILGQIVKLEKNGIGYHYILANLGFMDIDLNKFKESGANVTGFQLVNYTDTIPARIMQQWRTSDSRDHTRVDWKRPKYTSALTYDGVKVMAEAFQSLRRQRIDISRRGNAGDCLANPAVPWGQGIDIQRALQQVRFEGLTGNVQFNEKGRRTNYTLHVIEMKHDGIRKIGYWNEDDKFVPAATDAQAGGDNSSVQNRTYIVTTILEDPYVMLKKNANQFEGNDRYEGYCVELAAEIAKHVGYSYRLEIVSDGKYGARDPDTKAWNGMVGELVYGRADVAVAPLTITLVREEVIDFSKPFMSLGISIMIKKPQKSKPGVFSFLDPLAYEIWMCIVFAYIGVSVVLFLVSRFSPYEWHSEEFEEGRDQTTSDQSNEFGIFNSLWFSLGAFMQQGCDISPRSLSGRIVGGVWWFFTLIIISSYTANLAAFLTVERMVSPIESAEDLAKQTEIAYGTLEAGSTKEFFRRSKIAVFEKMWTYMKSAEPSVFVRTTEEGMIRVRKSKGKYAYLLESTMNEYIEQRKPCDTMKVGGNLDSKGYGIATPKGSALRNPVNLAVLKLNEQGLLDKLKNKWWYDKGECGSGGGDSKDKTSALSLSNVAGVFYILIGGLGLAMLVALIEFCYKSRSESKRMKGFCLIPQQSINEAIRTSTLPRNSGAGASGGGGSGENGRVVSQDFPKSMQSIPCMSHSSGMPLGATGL

Structure (SMILES)	Ki (Glutamate receptor 1 [1]) [µM]	Ki (Glutamate receptor 4 [2]) [µM]	Ki [3] [µM]	Ki (Glutamate receptor 3 [4]) [µM]	Ki [5] [µM]	further results
N[C@@H](Cn1cc(Cl)c(=O)[nH]c1=O)C(=O)O	0.037	0.561	> 100	0.451	0.047	
N[C@@H](Cn1cc(I)c(=O)[nH]c1=O)C(=O)O	0.083	0.738	> 100	0.976	0.0024	EC50 (Glutamate receptor 1 [6]): 33.6 µM
N[C@@H](Cn1cc(F)c(=O)[nH]c1=O)C(=O)O	0.0029	0.123	> 100	0.07	1.38	EC50 (Glutamate receptor 3 [7]): 20.9 µM; EC50 (Glutamate receptor 4 [8]): 11.9 µM; EC50 (Glutamate receptor 1 [9]): 0.38 µM
N[C@@H](Cn1cc(Br)c(=O)[nH]c1=O)C(=O)O						EC50 (Glutamate receptor 1 [6]): 2.8 µM
N[C@@H](Cn1c2c(c(=O)[nH]c1=O)CCC2)C(=O)O	0.109	2.09	> 1000	1.89	0.044	EC50 (Glutamate receptor 1 [6]): 24.9 µM
NC(Cn1ccc(=O)[nH]c1=O)C(=O)O (stereo not given)	0.41	14.2	> 1000		> 100	
N[C@@H](Cn1c2c(c(=O)[nH]c1=O)CSC2)C(=O)O	0.058	0.288	> 1000	0.311		EC50 (Glutamate receptor 3 [7]): 33.9 µM; EC50 (Glutamate receptor 4 [8]): 24.2 µM; EC50 (Glutamate receptor 1 [9]): 11.8 µM; EC50 (Glutamate receptor 1 [10]): 18.5 µM; IC50 [11]: 0.0038 µM; IC50 [5]: 0.0052 µM
N[C@@H](CCn1c2c(c(=O)n(CC[C@H](N)C(=O)O)c1=O)CCC2)C(=O)O	> 100	> 100	> 100	> 100	> 1000	Ki (Glutamate receptor 2 [12]): > 100 µM
CC1(C)Cc2c(n(C[C@H](N)C(=O)O)c(=O)[nH]c2=O)C1	0.102	1.59	> 1000	1.51	0.976	Ki (Glutamate receptor 2 [12]): 0.126 µM
N[C@@H](Cn1c(=O)[nH]c(=O)c2sccc21)C(=O)O	0.05	0.804	> 1000	0.936		EC50 (Glutamate receptor 3 [7]): 120 µM; EC50 (Glutamate receptor 4 [8]): 90 µM; EC50 (Glutamate receptor 1 [9]): 7.2 µM; EC50 (Glutamate receptor 1 [10]): 4.1 µM; Ki (Glutamate receptor 2 [12]): 0.112 µM; EC50 (Glutamate receptor 2 [13]): 11.8 µM; IC50 (Glutamate receptor 1 [14]): 0.374 µM
N[C@H](Cn1c2c(c(=O)[nH]c1=O)CCC2)C(=O)O	10.4	> 100				
N[C@@H](CCn1c2c(c(=O)[nH]c1=O)CCC2)C(=O)O	> 100	> 100	> 1000	> 100	> 1000	Ki (Glutamate receptor 2 [12]): > 100 µM
N[C@@H](Cn1c(=O)[nH]c(=O)c2cocc21)C(=O)O	35.2	> 100	> 1000	> 100	2.98	
N[C@@H](Cn1c(=O)[nH]c(=O)c2ccccc21)C(=O)O	2.39	15.7	> 1000	6.91	0.49	Ki (Glutamate receptor 2 [12]): 3.39 µM
NC(Cn1cc(Br)c(=O)[nH]c1=O)C(=O)O (racemic)	0.035	0.656	> 100	0.434	0.0148	
Cc1onc(O)c1CC(N)C(=O)O (racemic) [(R,S)-AMPA]			> 1000			
N[C@@H](Cn1ccc(=O)[nH]c1=O)C(=O)O [(S)-WILLARDIINE]						EC50 (Glutamate receptor 1 [6]): 11.5 µM
C=C(C)[C@H]1CN[C@H](C(=O)O)[C@H]1CC(=O)O [KAINIC ACID]		3.57				
